The text below walks through data of US10577404B2, “Polypeptide derivatives from grass carp interferon and application thereof” (priority 2018, dated 2020).

Data set [1] concerns red blood cells of grass carp. The data set can be described thus: Hemolytic toxicity test on erythrocytes. It counts as cell-based. To be noted: concentration 64 μM or above. As for the experimental part: (§1) (1) 1 ml of blood of fresh grass carp and BALB/c mice are collected respectively and stored with heparin sodium for anticoagulation.
(§2) (2) The fresh plasma solutions obtained in step (1) are centrifuged under 1000 g for 5 minutes, the supernatant is discarded, and red blood cells are collected.
(§3) (3) The collected red blood cells are washed 3 times with PBS buffer, centrifuged under 1000 g for 5 minutes each time, and finally resuspended in 5 ml of PBS buffer.
(§4) 50 μl PBS+50 μl red blood cell suspension is used as a negative control, and 50 μl of red blood cell suspension+50 μl of 0.2% Triton X-100 is used as a positive control.
(§5) (6) After 1 hour, the 96-well plate is taken out, and centrifuged under 1000 g for 5 minutes at 4° C.
(§6) (7) The supernatant of the above-mentioned centrifuged solutions is taken and placed on a clean 96-well plate again, and then absorbance is measured at 570 nm with a microplate reader.
(§7) (8) The average values of all the groups are compared and analyzed. The test is repeated three times. Calculation formula: Hemolysis rate=(absorbance of experimental group−absorbance of negative group)/(absorbance of positive group−absorbance of negative group)×100%. (9)

The test system of another data set is red blood cells of mice. The data set can be described thus: Hemolytic toxicity test on erythrocytes. The conditions noted are these: concentration 64 μM or above. It counts as cell-based, BALB/c mice. The protocol: as §1, §2, §3, §4, §5, §6, §7
A further data set relates to grass carp CIK cells. The data set can be described thus: Cytotoxicity test (MTT method). It counts as cell-based. The conditions noted are these: final concentration 128 μM, 24 hours. From the text:
(§8) Cytotoxicity test of the interferon-derived polypeptide on human HEK293T cells and grass carp CIK cells:
(§9) The MTT method, also known as the MTT colorimetric method, is a method for measuring cell proliferation and cell survival rate. The detection principle is that the […] in the living cell mitochondria can reduce the exogenous MTT to a water-insoluble blue-purple crystalline Formazan which deposits in the cells, while the dead cells have no such function. DMSO can dissolve Formazan in the cells, and through measuring its absorbance by using an enzyme-linked immunosorbent detector at a wavelength of 492 nm, the number of living cells can be reflected indirectly. Within a certain range of the number of cells, the amount of the formed MTT crystal is proportional to the number of cells.
(§10) (1) Cell preparation: A human HEK293T cell line and grass carp CIK cell line preserved in liquid nitrogen are resuscitated and cultured in DMEM containing 10% fetal bovine serum under the conditions of 37° C./28° C., 5% CO2, and saturated humidity. The culture solution is changed every other day, and the cell passage is carried out by trypsinization. When 80%-90% of the bottom of the flask is covered with cells, the cells are washed twice with PBS, 2 ml of 0.25% trypsin digestive juice is added, and the degree of digestion is observed under an inverted microscope; when most of the cells are rounded and the cells are in loose connection, it indicates moderate digestion and this process is about 3 minutes; the digestion is terminated by adding a DMEM or MEM medium containing fetal bovine serum, the digestive juice is poured off, and about 3 ml of the cell culture solution is added to thoroughly blow the cells to form a single cell suspension. Finally, the diluted cell suspension is added to a 96-well plate, and 50 μl of the diluted cell suspension is added to each well at a concentration of about 1×10^4 cells/well.
(§11) The cell wells without the interferon-derived polypeptide are used as positive control, and the cell well with the interferon-derived polypeptide but without the cells are used as negative control, and the culture is further continued for 24 hours.
(§12) (3) Reading: After culture for a certain period of time, […] (5 mg/ml) of MTT is directly added to each well, and after culture for 4 hours, 150 μl of DMSO is added and vibration is carried out for 10 minutes to dissolve the crystal, and the absorbance is then measured at 492 nm by the enzyme-linked immunosorbent detector. The test is repeated three times.
(§13) Survival rate=(absorbance of experimental group−absorbance of negative group)/(absorbance of positive group−absorbance of negative group)×100%. (5)

Data set [2] can be described thus: Cytotoxicity test (MTT method). It counts as cell-based.
From the text: as §8, §9, §10, §11, §12, §13
A general note: Tetrazolium dyes change colour on reduction, which living cells bring about.

For the next data set, the system named is human HEK293T cells. Kind of data set: Cytotoxicity test (MTT method). It counts as cell-based. To be noted: 24 h, 128 µM.
From the text: as §8, §9, §10, §11, §12, §13

A short description of data set [3]: Toxicity of the drug to mice without bacterial infection (safe dose). It counts as in vivo. The conditions noted are these: intraperitoneal injection, no bacterial infection. As for the experimental part:
First, an appropriate drug treatment dose is selected through pre-tests, and an appropriate drug dose concentration is found through 3-5 different drug dose concentration groups. In addition, the toxicity of the drug to mice should be tested so as to preliminarily evaluate the safety of the drug, that is, in the absence of bacterial infection, only the mice are intraperitoneally injected with the interferon-derived polypeptide drug, and the safe dose range is <200 μg/head.

[4] abbreviates: human, HEK293T cells, Survival rate of cells.

Like-named read-outs stand apart in the source and are kept apart here. Ends that are not written are not given here. Some results are limits rather than exact numbers.

Consider `CC[C@H](C)[C@H](NC(=O)[C@H](CCCCN)NC(=O)[C@H](CCC(=O)O)NC(=O)[C@H](CCCCN)NC(=O)[C@H](CO)NC(=O)[C@H](CCCCN)NC(=O)[C@H](CCCNC(=N)N)NC(=O)[C@H](Cc1ccccc1)NC(=O)[C@H](Cc1ccccc1)NC(=O)[C@H](CC(=O)O)NC(=O)CNC(=O)[C@H](CC(C)C)NC(=O)[C@@H](N)CC(C)C)C(=O)NCC(=O)N[C@@H](CCCCN)C(=O)N[C@@H](CCC(=O)O)C(=O)N[C@@H](Cc1ccccc1)C(=O)N[C@@H](CCCCN)C(=O)N[C@@H](CCCNC(=N)N)C(=O)N[C@H](C(=O)N[C@H](C(=O)N[C@@H](CCC(N)=O)C(=O)N[C@@H](CCCNC(=N)N)C(=O)N[C@H](C(=O)N[C@@H](CCCCN)C(=O)N[C@@H](CC(=O)O)C(=O)N[C@@H](Cc1ccccc1)C(=O)N[C@@H](CC(C)C)C(=O)N[C@@H](CCCNC(=N)N)C(=O)N[C@@H](CC(N)=O)C(=O)N[C@@H](CC(C)C)C(=O)N[C@H](C(=O)N1CCC[C@H]1C(=O)N[C@@H](CCCNC(=N)N)C(=O)N[C@H](C(=O)N[C@@H](CCC(=O)O)C(=O)N[C@@H](CO)C(=O)O)[C@@H](C)O)C(C)C)[C@@H](C)CC)C(C)C)[C@@H](C)CC` [LL37], for which the “hemolytic toxicity (in words)” value (in data set [1]; with red blood cells of mice) was “obvious” each time. Also, the “Survival rate of cells” value in the data set with grass carp CIK cells turned out to be 15%.

Consider “SYEKKINRHFKILKKNLKKK [Interferon-derived polypeptide]”, for which the viability at 24 h, 8 µM turned out to be 95.4% in data set [2] (CIK cells, grass carp CIK, final concentration 8 μM, read-out: Survival rate of cells) and 98.3% in data set [2] (setting [4]). For the same compound, the viability at 24 h, 16 µM was 96.7% in data set [2] (CIK cells, grass carp CIK, final concentration 16 μM, read-out: Survival rate of cells) and 97.2% in data set [2] (setting [4]). The viability at 24 h, 32 µM in data set [2] (CIK cells, grass carp CIK, final concentration 32 μM, read-out: Survival rate of cells) is 95.2%; in data set [2] (setting [4]) it was 93%. The viability at 24 h, 64 µM in data set [2] (CIK cells, grass carp CIK, final concentration 64 μM, read-out: Survival rate of cells) is 87%; in data set [2] (setting [4]) it was 89%. Besides, the viability at 24 h, 128 µM was greater than 80% in data set [2] (CIK cells, grass carp CIK, final concentration 128 μM, read-out: Survival rate of cells) and greater than 80% in data set [2] (setting [4]). Besides, the “Survival rate of cells” value with grass carp CIK cells is recorded as 81%; with human HEK293T cells, 83%. For the same compound, the safe dose range in data set [3] is listed as less than 200 μg/head.
